Measured values reported in patent publication US6887669B1, “Reagents for assays for ligands” (Dade Behring Marburg GmbH, priority 1996, dated 2005).

How the values were obtained:
[1] = Background absorbance at 340 nm of Reagent A containing releasing agent; format: physicochemical; conditions: for C A 340 nm (background absorbance): 3 μL negative NHP + 72 μL water + 155 μL Reagent A, 0.6 cm path; for C A 340 nm (background absorbance) / D ΔA = agent - control ΔA 340 nm: ANS 0.25 mM, anisic acids 12.5 mM in Rgt A
Method: In both runs, the background absorbance at 340 nm for each Reagent A was measured in duplicate on a 230-μL combination of 3 μL negative NHP, 72 μL of deionized water, and 155 μL Reagent A. The cell path length was 0.6 cm. […] These changes are noted as follows. Reagent B and water were added in cycle 4. The analysis was finished at the end of cycle 15. Rates were determined using the 5 absorbance readings of cycles 11 through 15.

[2] = Discoloration of Reagent A on exposure to light; format: physicochemical; conditions: agent formulated in Reagent A
[3] = test system: MPA bound to plasma proteins in normal human plasma (NHP); assay: MPA enzyme immunoassay rates with releasing agents in Reagent A (NHP versus buffer), Example 2; conditions: for I (H-G) Buff Rate Span: 0 to 10 μg/mL MPA in buffer; for J (H-F) Buff-NHP Rate Diff.: 10 μg/mL MPA, closer to zero = better releasing effect; for G Buff with 0 μg/mL MPA Rate / H Buff with 10 μg/mL MPA Rate: 50 mM MES buffer pH 7.1; for G Buff with 0 μg/mL MPA Rate / H Buff with 10 μg/mL MPA Rate / E NHP with 0 μg/mL MPA Rate / F NHP with 10 μg/mL MPA Rate: ANS 0.25 mM, anisic acids 12.5 mM in Rgt A
Method: Rates were determined on a Cobas Mira Plus® instrument (Roche Diagnostics Systems, Inc., Branchburg, N.J.). The temperature was kept at 37° C. for the entire assay. Timings were carried out in cycles with each cycle being 25 seconds. In cycle 1, the first cycle, 75 μL of water and 3 μL of a sample were mixed with 155 μL of A diluent in a 0.6 cm path length cuvette. This mixture was incubated until the addition of Reagent B in cycle 7. […] In cycle 7, seventy-five μL of Reagent B followed by 20 μL of water was then added to the cuvette, mixed, and incubated until the end of cycle 25 at which time the assay was finished. During the assay, absorbance readings at 340 nm were made at the end of every cycle. A best linear fit was then made using only the 12 consecutive absorbance readings of cycles 14 through 25 versus time in minutes. The slope of this line was the rate.
In these experiments, the diluent for Reagent A (Rgt A) was made somewhat differently than that in Example 1. However, the composition was the same, except for component 7 (releasing agent, o-anisic acid) and component 10 (concentration of MPA antibody). Five diluents were prepared, four with one of each of the above agents and one control with no agent. First, a 2×solution was made in the manner described in Example 1 but which had only components 1 through 5 and 9 at twice the amounts listed. Next, for three of the diluents, each of the three anisic acid isomers was weighed to achieve a final molarity of 12.5 mM and predissolved in one quarter the final volume of water and a minimum amount of 6 N NaOH (approximately 6 drops per 0.2 grams anisic acid). For the fourth diluent, the agent, ANS, was weighed to give a 0.25 mM final concentration and added to one quarter the final volume of water. The fifth diluent, the control, had no releasing agent. To make each of these five diluents, the appropriate amounts of the 2×solution, the 1×amount of BSA, component 8, and the 1×amount of the Pluronic 25R solution, component 6, were combined. Four of these then received the appropriate agent. All were mixed well. Where necessary, pH adjustments were made as described previously and each preparation was brought to the final volume with deionized water to achieve 1× concentrations of components. Each of these A diluents was then filtered through a 0.2 micron filter. Final pH measurements on each were all between 5.5 to 5.7. For each of these five A diluents, a corresponding Reagent A was made by adding antibody to MPA for a final concentration of 6.5 μg/mL. Reagent B (Rgt B) was prepared as described in Example 1 except that component 20 was omitted and 0.1% BSA (Miles Diagnostics, Kankakee, Ill.) was substituted for BLG.
In a total of two runs the effects of each of the four agents relative to a control of no agent was examined with respect to (1) background absorbance at 340 nm, (2) the rate of a negative MPA sample, (3) the rate span between 0 and 10 μg/mL MPA, and (4) the closeness of rate matching of a 10 μg/mL MPA spike in NHP and in buffer. Both runs included the control Reagent A. The first run evaluated Reagent A with ANS while the second run evaluated Reagent A preparations containing the structural isomers of anisic acid.
MPA was spiked into NHP and buffer (Buff) to achieve a final concentration of 10 μg/mL MPA. Buffer in this example was 50 mM MES (2-[N-morpholino]ethanesulfonic acid, obtained from Sigma Chemical Company) with 0.1% (weight/volume) sodium azide, pH 7.1. As with PBS, this buffer has no protein and thus no protein binding of MPA can occur.
In both runs, the background absorbance at 340 nm for each Reagent A was measured in duplicate on a 230-μL combination of 3 μL negative NHP, 72 μL of deionized water, and 155 μL Reagent A. The cell path length was 0.6 cm. The average A340 (A=absorbance) values are found in Column C of Table 1. Duplicate rates were determined on the spiked and unspiked NHP and buffer similar to Example 1. […]

[4] = cited from earlier work
[5] = test system: MPA bound to plasma proteins in normal human plasma; assay: MPA rates in plasma spikes in the presence of co-administered drugs and salicylate, with or without o-anisic acid, Example 4
Method: In a separate study, the ability of o-anisic acid to eliminate the effect of salicylate on rates of MPA plasma spikes was compared. Two sets of antibody reagents (Reagent A) were prepared to the basic formulation described in Example 2 above. In one reagent, no releasing agent was added; in another reagent, o-anisic acid was added at 12.5 mM. A common Reagent B was prepared as described in Example 2. Rates for four levels of MPA spikes into plasma and a plasma control were measured with each reagent set. […] Salicylate was present at 659 μg/mL. Rates were determined as described in Example 2 above with the exception of the absorbance read window, which was extended to cycle 20 where the assay was ended. Rates were determined using the 10 consecutive absorbance readings of cycles 11 through 20.

[6] = test system: MPA bound to plasma proteins in normal human plasma pool (NHP); assay: EMIT-type enzyme immunoassay for MPA with o-anisic acid in Reagent A: quantitation of MPA spike in NHP versus protein-free PBS; conditions: average of two spikes, formulation with o-anisic acid, pooled sd 0.4 μg/mL
Method: Reagent A was prepared by first making an anisic acid solution. Anisic acid was dissolved in 1 N NaOH in an amount equal to 25 mL per 1.52 grams of anisic acid. In a separate container was weighed 70% of the final weight of deionized water, to which was added components 1 through 5 inclusive and also component 6 using the prepared solution of Pluronic®25R2 at 10 mL thereof per 1017.9 g (or 1.0 liter) of final solution. This solution was stirred and the anisic acid solution was added. If necessary, the pH of the preparation was adjusted within the range of 5.50 to 5.70 with 6 N NaOH. Next, components 8 and 9 were added and the solution was stirred. If necessary, the pH was adjusted to the above range. […]
For Reagent B deionized water was weighed in an amount equal to 80% of the final weight. […] The conjugate, component 19, was added to achieve a rate of 300±10 mA/min; rate is defined as the change in absorbance at 340 nm per minute of reaction time and is usually expressed as mA/min.
Rates were determined on a Cobas Mira Plus® instrument (Roche Diagnostics Systems, Inc., Branchburg, N.J.). […] During the assay, absorbance readings at 340 nm were made at the end of every cycle. A best linear fit was then made using only the 12 consecutive absorbance readings of cycles 14 through 25 versus time in minutes. […]

MPA enzyme immunoassay = assay: Effect of salicylate as releasing agent on total dose-response curve of MPA enzyme immunoassay; conditions: salicylate used as releasing agent
Source text: Salicylate is known to increase MPA free fraction in normal human plasma when present at concentrations that may be observed in chronic administration of aspirin (Nowak, infra). […] It is also known that 8-anilino-1-naphthalenesulfonic acid (ANS) functions as a releasing agent in immunoassays (Nerli, et al., Arch Int Physiol Biochim Biophys (1994) 102(1):5-8 and Seth, et al., Clin Chem (1975) 21(10):1406-1413. However, ANS has disadvantages because of its background absorbance at 340 nm and its susceptibility to light degradation. The background absorbance is particularly disadvantageous in enzyme immunoassays. However, ANS has been used in certain enzyme assays under conditions where its disadvantages can be tolerated.

[7] = plasma + methanol control, o-anisic acid 12.5 mM in Reagent A
[8] = plasma with NI drugs + salicylate 659 μg/mL, o-anisic acid 12.5 mM in Reagent A
[9] = plasma with non-interfering co-administered drugs, o-anisic acid 12.5 mM in Reagent A
[10] = salicylate 659 μg/mL + NI drugs in plasma, no releasing agent in Reagent A

Compound | C A 340 nm (background absorbance) [1] | D ΔA = agent - control ΔA 340 nm [1] | I (H-G) Buff Rate Span [3] [mA/min] | J (H-F) Buff-NHP Rate Diff. [3] [mA/min] | G Buff with 0 μg/mL MPA Rate [3] [mA/min] | H Buff with 10 μg/mL MPA Rate [3] [mA/min] | E NHP with 0 μg/mL MPA Rate [3] [mA/min] | F NHP with 10 μg/mL MPA Rate [3] [mA/min] | also measured
O=S(=O)(O)c1cccc2cccc(Nc3ccccc3)c12 [ANS, 8-anilino-1-naphthalene sulfonic acid, reference compound] | 0.779 | 0.322 | 120.2 | 2.0 | 156.0 | 276.2 | 158.2 | 274.2 | discoloration of Reagent A when exposed to light [2]: visibly discolored when exposed to light
COc1c(C)c2c(c(O)c1C/C=C(\C)CCC(=O)OCCN1CCOCC1)C(=O)OC2 [MPA-M, morpholinoethyl (E)-6-(1,3-dihydro-4-hydroxy-6-methoxy-7-methyl-3-oxo-5-isobenzofuranyl)-4-methyl-4-hexenoate] |  |  |  |  |  |  |  |  | hydrolysis in vivo to MPA [4]: rapidly hydrolyzed in vivo to MPA
COc1cccc(C(=O)O)c1 [m-AA] | 0.494 | 0.008 | 90.3 | −0.6 | 189.4 | 279.7 | 188.1 | 280.3 | 
COc1ccccc1C(=O)O [o-AA, o-methoxybenzoic acid] | 0.490 | 0.004 | 109.3 | 0.6 | 168.2 | 277.5 | 169.5 | 276.9 | effect of o-anisic acid in the antibody reagent on salicylate interference ([5]; o-anisic acid 12.5 mM in Reagent A): eliminated this potential problem; Rate, MPA + MeOH, 0 μg/mL MPA [5, 7]: 161; Rate, MPA + MeOH, 0.5 μg/mL MPA [5, 7]: 171; Rate, MPA + MeOH, 2.5 μg/mL MPA [5, 7]: 210; Rate, MPA + MeOH, 5 μg/mL MPA [5, 7]: 234; Rate, MPA + MeOH, 15 μg/mL MPA [5, 7]: 264; Rate, MPA + NI + Salicylate, 0 μg/mL MPA [5, 8]: 161; Rate, MPA + NI + Salicylate, 0.5 μg/mL MPA [5, 8]: 171; Rate, MPA + NI + Salicylate, 2.5 μg/mL MPA [5, 8]: 211; Rate, MPA + NI + Salicylate, 5 μg/mL MPA [5, 8]: 234; Rate, MPA + NI + Salicylate, 15 μg/mL MPA [5, 8]: 263; Rate, MPA + NI, 0 μg/mL MPA [5, 9]: 161; Rate, MPA + NI, 0.5 μg/mL MPA [5, 9]: 173; Rate, MPA + NI, 2.5 μg/mL MPA [5, 9]: 211; Rate, MPA + NI, 5 μg/mL MPA [5, 9]: 234; Rate, MPA + NI, 15 μg/mL MPA [5, 9]: 263; quantitation of a 10 μg/mL MPA spike in normal human plasma pool (NHP) [6]: 10.2 µg/mL; quantitation of a 10 μg/mL MPA spike in PBS ([6]; protein-free PBS): 10.4 µg/mL
COc1ccc(C(=O)O)cc1 [p-AA] | 0.494 | 0.008 | 96.0 | −2.1 | 182.3 | 278.3 | 182.7 | 280.4 | 
O=C(O)c1ccccc1O [salicylic acid, 2-hydroxybenzoic acid, reference compound] |  |  |  |  |  |  |  |  | absorbance above the control background at 340 nm ([1]; 25 mM in Reagent A): 0.311 absorbance units; decrease in the total dose-response curve in an MPA enzyme immunoassay (MPA enzyme immunoassay): 25-50%; effect of salicylate on rates of MPA in normal human plasma ([5]; absence of releasing agents): increased rates of MPA in normal human plasma; Rate, MPA + NI + Salicylate, 0.5 μg/mL MPA, Antibody Reagent Only [5, 10]: 157; Rate, MPA + NI + Salicylate, 2.5 μg/mL MPA, Antibody Reagent Only [5, 10]: 190; Rate, MPA + NI + Salicylate, 5 μg/mL MPA, Antibody Reagent Only [5, 10]: 210; Rate, MPA + NI + Salicylate, 15 μg/mL MPA, Antibody Reagent Only [5, 10]: 250
